Laboratory results from patent US8455466B2, “Vitamin d analogues, compositions comprising said analogues and their use” (Leo Pharma A/S, priority 2002, dated 2013).

Legend:
rats = assay: In vivo calcemic activity in rats (Binderup et al.); set-up: species or system rat; details: Calcitriol = 100%
[1] = system: bovine parathyroidea cells; assay: In vitro PTH secretion in bovine parathyroidea cells; assay type: cell-based; details: cells treated with vitamin D analogues for 60 hours at 37° C.
Experimental: The calcemic activities of the compounds of the present invention were determined in rats in vivo, as previously described (Binderup, L., Bramm, E., Biochem. Pharmacol. 37, 889-895 (1988)). The PTH suppressive effect of the compounds of the present invention was tested in vitro on bovine parathyroidea cells: Fresh bovine parathyroid glands were collected from adult cattle within 20 min of slaughter. From minced parathyroid tissue dispersed parathyroid cells were prepared as previously described (E. M. Brown, S. Hurwitz and G. D Aurbach; Preparation of viable isolated bovine parathyroid cells; Endocrinology, 1976, vol 99, no 6, 1582-1588). Then, the cells were treated with vitamin D analogues for 60 hours at 37° C. and the PTH secretion was determined.

secretion of PTH = details: patients; 1α(OH)D3 versus 1,25(OH)2 D3 administered; cited from earlier work

| Molecule | In vivo calcemic activity relative to Calcitriol (1,25(OH)2D3) (rats) | In vitro PTH secretion relative to untreated bovine parathyroidea cells (untreated cells as control = 100%) [1] | suppression of the secretion of PTH, compared with 1,25(OH)2 D3 dosing (secretion of PTH) |
| --- | --- | --- | --- |
| C=C1/C(=C\C=C2/CCC[C@]3(C)[C@@H]([C@H](C)CCCC(C)C)CC[C@@H]23)C[C@@H](O)C[C@@H]1O [1α(OH)D3] |  |  | no significant difference |
| C=C1/C(=C\C=C2/CCC[C@]3(C)[C@@H]([C@H](C)CCCC(C)(C)O)CC[C@@H]23)C[C@@H](O)C[C@@H]1O [Calcitriol, 1,25(OH)2D3, reference compound] | 100% | 60% |  |
| C=C1C(=CC=C2CCCC3(C)C2CCC3C(C)C=CC=C(C)C)CC(O)CC1O [Compound 1, 1(S),3(R)-Dihydroxy-9,10-secocholesta-5(Z),7(E),10(19),22(E),24-penta-ene] | <10% ^ | 57% |  |
| C=C1C(=CC=C2CCCC3(C)C2CCC3C(C)C=CC=C(C)C)CC(O)CC1O [Compound 3, 1(S),3(R)-Dihydroxy-9,10-seco-20(S)-cholesta-5(Z),7(E),10(19), 22(E),24-penta-ene] | 1% | 61% |  |
| C=C1C(=CC=C2CCCC3(C)C2CCC3C(C)C=CC=C(C(F)(F)F)C(F)(F)F)CC(O)CC1O [Compound 25, 1(S),3(R)-Dihydroxy-26,26,26,27,27,27-hexafluoro-9,10-secocholesta-5(Z),7(E),10(19),22(E),24-penta-ene] | 8% | 74% |  |

Further lines, with some results ahead:

| In vivo calcemic activity relative to Calcitriol (1,25(OH)2D3) (rats) | Molecule | In vitro PTH secretion relative to untreated bovine parathyroidea cells (untreated cells as control = 100%) [1] | suppression of the secretion of PTH, compared with 1,25(OH)2 D3 dosing (secretion of PTH) |
| --- | --- | --- | --- |
| <0.5% ^ | 1(S),3(R)-Dihydroxy-9,10-seco-26,27-methano-20(S)-cholesta-5(Z),7(E),10(19),22(E),24-penta-ene [Compound 7] | 65% |  |
| 1% | 1(S),3(R)-Dihydroxy-9,10-seco-26,27-methano-cholesta-5(Z),7(E),10(19),22(E),24-penta-ene [Compound 6] | 56% |  |
| <0.5% ^ | C=C1C(=CC=C2CCCC3(C)C2CCC3C(C)C=CC=C(Br)Br)CC(O)CC1O [Compound 27, 1(S),3(R)-Dihydroxy-20(R)-(4,4-dibromo-1,3-butadien-1-yl)-9,10-seco-pregna-5(Z),7(E),10(19)-triene] | 65% |  |
| 1% | C=C1/C(=C\C=C2/CCC[C@]3(C)[C@@H]([C@H](C)/C=C/C=C(CC)CC)CC[C@@H]23)C[C@@H](O)C[C@@H]1O [Compound 28, 1(S),3(R)-Dihydroxy-26,27-dimethyl-9,10-secocholesta-5(Z),7(E),10(19),22(E),24-penta-ene] | 62% |  |
